Each structure is given as a SMILES string.

This assay deals with T1, BACE1 (Homo sapiens, UniProt P56817).
T1 construct: endogenous in cells; host or cells: HEK293 APP cells
Nature of the assay: Cellular Aβ-lowering assay (Abeta 40 AlphaLISA, HEK293 APP cells). It is filed as cell-based. Particulars: Aβ 40 in culture supernatant by AlphaLISA, 18-20 hrs incubation at 37° C., 1% DMSO. Here is the method: The compounds were investigated in accordance with the test given hereinafter.
The Abeta 40 AlphaLISA Assay can be used. The HEK293 APP cells were seeded in 96 well Microtiter plates in cell culture medium (Iscove's, plus 10% (v/v) fetal bovine serum, penicillin/streptomycin) to about 80% confluency and the compounds were added at a 3× concentration in ⅓ volume of culture medium (final DMSO concentration was kept at 1% v/v). After 18-20 hrs incubation at 37° C. and 5% CO2 in a humidified incubator, the culture supernatants were harvested for the determination of Aβ 40 concentrations using Perkin-Elmer Human Amyloid beta 1-40 (high specificity) Kit (Cat# AL275C).
In a Perkin-Elmer White Optiplate-384 (Cat# 6007290), 2 ul culture supernatants were combined with 2 μl of a 10× AlphaLISA Anti-hAβAcceptor beads+Biotinylated Antibody Anti-Aβ 1-40 Mix (50 μg/mL/5 nM). After 1 hour room temperature incubation, 16 μl of a 1.25× preparation of Streptavidin (SA) Donor beads (25 μg/mL) were added and incubated for 30 minutes in the Dark. Light Emission at 615 nm was then recorded using EnVision-Alpha Reader. Levels of Aβ 40 in the culture supernatants were calculated as percentage of maximum signal (cells treated with 1% DMSO without inhibitor). The IC50 values were calculated using the Excel XLfit software.

T1 sequence (P56817 46-501): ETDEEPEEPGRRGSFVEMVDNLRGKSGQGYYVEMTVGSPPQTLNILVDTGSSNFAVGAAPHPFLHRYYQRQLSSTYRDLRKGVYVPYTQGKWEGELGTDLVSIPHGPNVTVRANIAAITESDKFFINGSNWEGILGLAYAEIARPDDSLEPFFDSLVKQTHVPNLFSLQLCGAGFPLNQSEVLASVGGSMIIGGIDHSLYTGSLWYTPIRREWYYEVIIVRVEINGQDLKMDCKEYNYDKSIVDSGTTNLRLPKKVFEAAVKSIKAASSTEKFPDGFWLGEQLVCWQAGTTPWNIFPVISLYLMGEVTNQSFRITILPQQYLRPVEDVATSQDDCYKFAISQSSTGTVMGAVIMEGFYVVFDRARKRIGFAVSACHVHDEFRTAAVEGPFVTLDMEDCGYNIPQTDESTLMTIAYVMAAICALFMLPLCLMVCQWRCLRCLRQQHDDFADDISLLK

For the molecule `N#Cc1ccc(C(=O)Nc2ccc(F)c([C@]3(C(F)F)C[S@]4(=O)=NCCCCN4C(N)=N3)n2)nc1` [Example 6, N-[6-[(1S,10S)-8-Amino-10-(difluoromethyl)-1-oxo-1λ^6-thia-2,7,9-triazabicyclo[5.4.0]undeca-1,8-dien-10-yl]-5-fluoropyridin-2-yl]-5-cyanopyridine-2-carboxamide], it took 78 nM to reach half-maximal inhibition (IC50).

Consider `N#Cc1ccc(C(=O)Nc2ccc(F)c([C@]3(C(F)F)C[S@@]4(=O)=NCCCCN4C(N)=N3)n2)nc1` [Example 7, N-[6-[(1R,10S)-8-Amino-10-(difluoromethyl)-1-oxo-1λ^6-thia-2,7,9-triazabicyclo[5.4.0]undeca-1,8-dien-10-yl]-5-fluoropyridin-2-yl]-5-cyanopyridine-2-carboxamide], for which the midpoint of inhibition, the IC50, lay at 147 nM.
